From patent US8420696B2, “Use of low-dose ladostigil for neuroprotection” (priority 2005, dated 2013)
Values joined by “and” are separate entries in the source; they are usually repeats but may differ in a detail not shown here. Equal values may be shown once. “Also recorded” adds a separate entry of the source.

Key:
cultured neuronal cells = conditions: low concentrations; cited from earlier work
[1] = tested on: dopaminergic neuroblastoma SH-SY5Y cells; conditions: cited from earlier work
ChE = experiment: Example 2: total ChE activity in cortex, hippocampus and plasma after ladostigil treatment; assay type: in vivo, rats
Procedure: The effect of chronic ladostigil treatment on ChE activity in the cortex and hippocampus of rats was determined one week after icv STZ in 12 rats (3 treated with water and 9 with ladostigil). The effect of acute treatment with ladostigil 1 or 17 mg/kg was determined 2 hrs after drug administration. […] The brain was rapidly removed, washed with saline on ice and the cortex, hippocampus and striatum dissected out, quickly weighed and stored at −70° C. until assay. Total ChE activity in the cortex and hippocampus was measured as described in Wang et al., Gender differences in the effect of rivastigmine on brain cholinesterase activity and cognitive function in rats, Neuropharmacology (2000) 39:497-506, using the spectrophotometric method of Ellman et al., A new and rapid colorimetric determination of acetylcholinesterase activity, Biochem. Pharmacol. (1961) 7:88-95 with acetylthiocholine (Sigma Ltd) as a substrate using homogenate of 100 mg tissue in 1 ml phosphate buffer. To determine only butyrylcholinesterase (BuChE) activity the amounts of tissue/ml of buffer were increased 3-fold and butyrylthiocholine (Sigma Ltd) was used as a substrate. MAO A and B activity was measured in homogenates of striatum as described in Weinstock et al., Limited potentiation of blood pressure response to oral tyramine by brain-selective monoamine oxidase A-B inhibitor, TV-3326 in conscious rabbits, Neuropharmacology (2002) 43:999-1005.

[2] = tested on: nitrotyrosine immunoreactivity in astrocytes; experiment: Example 1: nitrotyrosine immunoreactivity in hippocampal CA1 astrocytes one week after icv STZ; assay type: in vivo, Sprague-Dawley rats; conditions: for Increase in nitrotyrosine immunoreactivity in astrocytes in three areas of the CA1 region of the hippocampus: ladostigil 1.0 mg/kg daily oral, one week before to one week after icv STZ
Procedure: The study was performed on male Sprague-Dawley rats (Harlan, Jerusalem) weighing 320-340 g, aged 4 months, according to the guidelines of the University Committee for Institutional Animal Care and based on those of the National Institutes of Health, USA. The rats were housed for one week prior to surgery in the Animal House at an ambient temperature of 21±1° C. and a 12 hr diurnal light cycle (lights on at 0700 hr).
Male Sprague-Dawley rats (30) weighing 320-340 g, were anaesthetized by an intraperitoneal (i.p.) injection of Equithesin 0.3 ml/kg. STZ (0.5 mg) in 2 μl artificial cerebrospinal fluid (CSF) was injected into each lateral ventricle of 20 rats. The stereotaxic co-ordinates for icv injection were: 0.9 mm posterior, 1.8 mm lateral and 3.8 mm ventral from the bregma level. Control rats (10) received a bilateral injection of 2 μl artificial CSF. Half of the STZ-injected rats were given ladostigil (1 mg/kg) orally in a volume of (1 ml/kg) one week before, and for one week after icv STZ. The remainder, received 1 ml/kg water. The rats were anaesthetized with sodium pentobarbitone, perfused transcardially and the brains processed for immunocytochemistry as described below.
The brains were sectioned in a cryostat in 30 μm thick slices and stained immunochemically with the following markers: Nitrotyrosine, a marker of nitrative/oxidative stress, was stained with rabbit anti-nitrotyrosine from Upstate (Lake Placid, N.Y., USA), diluted 1:100. Glial fibrillary acidic protein (GFAP), a marker of astrocyte activation, was stained with mouse antibody, clone GA-5 from Sigma (Rehovot, Israel), diluted 1:500. […]. For rabbit antibodies, the secondary donkey anti-rabbit conjugated with horseradish peroxidase from Chemicon (Temecula, Calif., USA), was diluted 1:200. For mouse anti-GFAP, the secondary goat anti mouse conjugated with horseradish peroxidase from Sigma (Rehovot, Israel), was diluted 1:100. Colour development was obtained by reaction with diaminobenzidine and hydrogen peroxide as described in Shoham et al., Intracerebroventricular injection of streptozotocin causes neurotoxicity to myelin that contributes to spatial memory deficits in rats, Exp. Neurol. (2003) 184:1043-52. Images were obtained by bright field microscopy and quantitative assessments of appropriate markers were made by means of densitometric measurements with AnalySIS software.
Rectangular fields measuring 200 μm×100 μm were sampled from these areas in two sections containing the hippocampus from each rat. The percentage area in which nitrotyrosine immunoreactivity was seen was computed and averaged between the two sections.
Densitometic data were analyzed by univariate ANOVA followed by Duncan's post hoc test.

[3] = STZ + ladostigil 1 mg/kg orally one week before and one week after icv STZ, mean of two sections per rat
[4] = STZ + ladostigil 1 mg/kg orally, n = 5

C#CCN[C@@H]1CCc2ccc(OC(=O)N(C)CC)cc21 [ladostigil, R(+)-6-(N-methyl,N-ethyl-carbamoyloxy)-N′-propargyl-1-aminoindan]
Cytotoxicity induced by ROS and NO in cultured neuronal cells (cultured neuronal cells): prevent cytotoxicity
Apoptosis in SH-SY5Y cells exposed to the NO donor Sin1 ([1]; 0.1-1 μM): prevented apoptosis
Apoptosis induced by Sin-1 in cultured SH-SY5Y cells [1]: suppress apoptosis
ChE (%) inhibition (ChE; Cortex, 60 min after last dose, chronic 1 mg/kg, seven days after icv STZ): 16.1 ± 4.7 %
ChE (%) inhibition (ChE; Cortex, 120 min after last dose, chronic 1 mg/kg, seven days after icv STZ): 23.6 ± 3.1 %
ChE (%) inhibition (ChE; Hippocampus, 60 min, chronic 1 mg/kg): 4.9 ± 2.6%
ChE (%) inhibition (ChE; Hippocampus, 120 min, chronic 1 mg/kg): 5.9 ± 3.2%
ChE (%) inhibition (ChE; Plasma, 120 min, chronic 1 mg/kg): 20 ± 2%
ChE inhibition in the hippocampus or plasma (ChE; acute administration 1 mg/kg): not in the hippocampus or plasma
ChE inhibition in both brain regions and in plasma (ChE; acute administration 17 mg/kg, 17 mg/kg): 40-42% and 40%
Inhibition of ChE activity in the plasma (ChE; chronic 1 mg/kg): 20%
Inhibition of ChE in the hippocampus (ChE; chronic 1 mg/kg): no ChE inhibition occurred; also recorded: no significant AChE inhibition occurred
Inhibition of total ChE activity in the cortex (ChE; chronic 1 mg/kg, seven days after icv STZ, 1 or 2 hrs after the last dose): 24% and 28% and ~20%
Nitrotyrosine Immunoreactivity, Alveus (percentage area), individual rat [2, 3]: 4 and 9.5 and 7 and 9 and 15
Nitrotyrosine Immunoreactivity, Stratum oriens (percentage area), individual rat [2, 3]: 14.5 and 19 and 5.5 and 8.5 and 20.5
Nitrotyrosine Immunoreactivity, Stratum radiatum (percentage area), individual rat [2, 3]: 1.5 and 22 and 3 and 7.5 and 11.5
Nitrotyrosine Immunoreactivity, Alveus (percentage area), group Mean ± SEM [2, 4]: 8.9 ± 1.8
Nitrotyrosine Immunoreactivity, Stratum oriens (percentage area), group Mean ± SEM [2, 4]: 13.6 ± 2.9
Nitrotyrosine Immunoreactivity, Stratum radiatum (percentage area), group Mean ± SEM [2, 4]: 9.1 ± 3.7
Increase in nitrotyrosine immunoreactivity in astrocytes in three areas of the CA1 region of the hippocampus [2]: prevented the increase
Increase in nitrotyrosine immunoreactivity in astrocytes in three areas of the CA1 region of the hippocampus ([2]; listed as Ladostigil): completely prevented the increase
